Data published in patent US7696240B2, “Fused pyrrole derivatives” (Hoffmann-La Roche Inc., priority 2005, dated 2010).

Molecular target: T1, Chymase purified form human skin mast cells (Homo sapiens, UniProt P23946)
T1 construct: Chymase purified form human skin mast cells was obtained from Calbiochem; purchased Calbiochem (Merck Biosciences, San Diego, Calif., USA); host or cells: human skin mast cells (natural source)
T1 sequence (P23946 22-247): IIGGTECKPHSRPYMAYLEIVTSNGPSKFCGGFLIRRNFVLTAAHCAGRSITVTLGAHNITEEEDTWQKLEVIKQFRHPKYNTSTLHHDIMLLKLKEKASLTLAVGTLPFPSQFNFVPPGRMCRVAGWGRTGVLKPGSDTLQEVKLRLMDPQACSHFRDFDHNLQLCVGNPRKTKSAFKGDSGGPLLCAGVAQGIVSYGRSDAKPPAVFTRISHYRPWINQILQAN
Test: chymase peptide substrate (AAPF-AMC) fluorescence assay
Format: biochemical
Details: 0.02 mM AAPF-substrate, 0.1 nM Chymase, pH 7.4, room temperature, 30 min pre-incubation
Procedure: The peptide was synthesized with a purity of 95% from Bachem, Bubendorf, Switzerland). Chymase purified form human skin mast cells was obtained from Calbiochem (Merck Biosciences, San Diego, Calif., USA). The assay buffer was 0.15 M NaCl, 0.05M, Tris HCl, 0.05% CHAPS (3-[(3-Cholamidopropyl)-dimethylammonio]-1-propane sulphonate), 0.1 mg/ml Heparin (Heparin sodium, Sigma, porcine intestinal mucosa), 0.02 mM AAPF-substrate, 0.1 nM Chymase at pH 7.4. The assay was performed in 96-well plates (Packard Optiplate), with a 0.05 ml volume at room temperature. Chymase activity was indicated by the initial rate of increase in fluorescence at 340/440 nm (excitation/emission) from free 7-amino-4-methylcoumarin released from the substrate. Inhibition of the activity by inhibitory compounds was read after 30 min pre-incubation with the chymase at room temperature in assay buffer without AAPF-substrate. The assay was then started by addition of the indicated concentration of AAPF-substrate.

Compound | IC50 [nM]
O=C(O)Cc1c(C(=O)O)n(Cc2cccc3ccccc23)c2ccccc12 [Example 5, 3-Carboxymethyl-1-naphthalen-1-ylmethyl-1H-indole-2-carboxylic acid] | 37
COC(=O)N(C)Cc1c(C(=O)O)n(Cc2csc3ccc(F)cc23)c2ccccc12 [Example 117, 1-(5-Fluoro-benzo[b]thiophen-3-ylmethyl)-3-[(methoxycarbonyl-methyl-amino)-methyl]-1H-indole-2-carboxylic acid] | 1
COC(=O)N(C)Cc1c(C(=O)O)n(Cc2cccc3ccc(F)cc23)c2ccccc12 [Example 106, 1-(7-Fluoro-naphthalen-1-ylmethyl)-3-[(methoxycarbonyl-methyl-amino)-methyl]-1H-indole-2-carboxylic acid] | 0.2
Cc1ccc(C(=O)NCc2c(C(=O)O)n(Cc3cccc4ccccc34)c3ccccc23)cc1 [Example 10, 3-[(4-Methyl-benzoylamino)-methyl]-1-naphthalen-1-ylmethyl-1H-indole-2-carboxylic acid] | 38
CS(=O)(=O)NCc1c(C(=O)O)n(Cc2cccc3ccc(F)cc23)c2ccccc12 [Example 105, 1-(7-Fluoro-naphthalen-1-ylmethyl)-3-(methanesulfonylamino-methyl)-1H-indole-2-carboxylic acid] | 0.8
O=C(O)c1cc2ccccc2n1Cc1csc2ccc(F)cc12 [Example 55, 1-(5-Fluoro-benzo[b]thiophen-3-ylmethyl)-1H-indole-2-carboxylic acid] | 30
O=C(O)c1cc2ccccc2n1Cc1cccc2ccc(F)cc12 [Example 49, 1-(7-Fluoro-naphthalen-1-ylmethyl)-1H-indole-2-carboxylic acid] | 17
